Assay results from ChEMBL document CHEMBL4739717, “Methods of treating cartilage disorders through inhibition of clk and dyrk” (2020).

Columns and labels:
[1] = Inhibition of IL1-beta induced MMP3 expression levels in human chondrocytes assessed as MMP3 levels incubated for 2hrs followed by IL1-beta stimulation and measured after overnight incubation by LANCE assay; type: functional, cell-based; settings: Chondrocyte
[2] = Effect on Wnt signaling pathway in human SW480 cells harbouring TCF/LEF luciferase reporter gene and SP5-Luc reporter gene incubated for 36 to 48 hrs by luminescence assay; type: cell-based
[3] = target: Dual specificity tyrosine-phosphorylation-regulated kinase 1A (Homo sapiens, UniProt Q13627); experiment: Inhibition of recombinant DYRK1A (unknown origin) using Ser/Thr 18 peptide as substrate incubated for 1 hr in presence of ATP by FRET assay
[4] = Induction of chondrogenesis in human MSC assessed as incubated for 6 days by rhodamine B and Nile red staining based imaging analysis; type: functional; settings: bmmsc

EC50 [1]	EC50 [2]	EC50 [3]	EC50 [4]	SMILES
3000 nM				O=C(Nc1cc2cc(-c3cncs3)ccc2cn1)c1ccc2c(c1)CNCC2
3000 nM	319 nM			O=C(Nc1cc2cc(-c3cncc(NC4CCNCC4)n3)ccc2cn1)C1CCCCC1
47.4 nM				CN(C)Cc1ccc(C(=O)Nc2cc3cc(-c4cnn(C)c4)ccc3cn2)cc1
9.5 nM				CN1CCN(c2ccc(C(=O)Nc3cc4cc(-c5cnn(C)c5)ccc4cn3)cn2)CC1
3000 nM	964 nM	1 nM		CN1CCC(Oc2ccc(NC(=O)c3n[nH]cc3/C=C/c3cccnc3)cn2)CC1
3000 nM	315 nM	1 nM		Cn1cc(-c2cc3c(C(=O)Nc4ccc(OCCN5CCCC5)cc4)n[nH]c3cc2F)cn1
0.4 nM				CN1CCN(c2cc(C(=O)Nc3cc4cc(-c5cnc(N)s5)ccc4cn3)ccn2)CC1
	1510 nM	19 nM	300 nM	CC(C)CC(=O)Nc1cncc(-c2cnc3[nH]nc(-c4cc5c(-c6cc(F)cc(CNS(C)(=O)=O)c6)nccc5[nH]4)c3c2)c1
138 nM	848 nM	4 nM		O=C(Nc1cccnc1)c1n[nH]c2cnc(-c3cncc(CN4CCCCC4)c3)cc12
1050 nM	2150 nM	33 nM		Cc1[nH]nc(C(=O)Nc2ccc(CN3CCCC3)cc2)c1/C=C/c1cccnc1
	4 nM	55 nM	100 nM	CC(C)(C)C(=O)Nc1cncc(-c2ccc3[nH]nc(-c4nc5c(-c6ccc(F)cc6)cncc5[nH]4)c3c2)c1
2.3 nM	1960 nM			NC(=O)c1n[nH]c2ccc(-c3cncc(CN4CCCCC4)c3)cc12
3000 nM	65.6 nM	2 nM		CN1CCC(Nc2cc(C(=O)Nc3cc4cc(-c5cnn(C)c5)ccc4cn3)ccn2)CC1
12.8 nM	620 nM	8 nM		Cc1ncc(-c2ccc3[nH]nc(-c4nc5c(-c6cc(F)cc(NCCN(C)C)c6)ccnc5[nH]4)c3n2)n1C
3000 nM	196 nM	1 nM		O=C(Nc1ccc(CN2CCCC2)cc1)c1n[nH]c2ccc(-c3cccnc3F)cc12
1370 nM				Cn1ncc(-c2ccc3cnc(NC(=O)c4ccc(OC(F)F)cc4)cc3c2)c1CO
3000 nM				NC1CN(c2cc(C(=O)Nc3cc4cc(-c5cnco5)ccc4cn3)ccn2)C1
3000 nM	1730 nM	54 nM		CCC1(N)CN(c2cncc(-c3ccc4[nH]nc(C)c4c3)n2)C1
	31.3 nM	26 nM	300 nM	COc1cncc(-c2cc3c(-c4nc5c(-c6cccc(F)c6)cncc5[nH]4)n[nH]c3cn2)c1
3000 nM	594 nM	3 nM		Cn1ncc(-c2ccc3cnc(NC(=O)[C@H]4CC[C@H](CO)CC4)cc3c2)c1CN1CCCCC1
2740 nM	2400 nM	1 nM		CC(C)NC(=O)c1n[nH]c2ccc(-c3cncc(NC4CCNCC4)n3)cc12
46.6 nM	3640 nM			O=C(Nc1cc2cc(-c3cncc(NC4CCNCC4)n3)ncc2cn1)C1CCOCC1
306 nM				CN(C)CCNc1cc(C(=O)Nc2cc3cc(-c4cnn(C)c4)ccc3cn2)ccn1
1430 nM	34.8 nM	2 nM		CC(C)n1cc(C(=O)Nc2cc3cc(-c4cncn4C)ccc3cn2)cn1

EC50 [1]	EC50 [2]	EC50 [3]	EC50 [4]	SMILES
3000 nM	430 nM	2 nM		O=C(Nc1cnccn1)c1n[nH]c2ccc(-c3cncc(CN4CCCCCC4)c3)cc12
3000 nM	262 nM			Cc1n[nH]c2ccc(-c3cncc(OC[C@@H](N)Cc4ccccc4)c3)cc12
17.8 nM	> 10000 nM	20 nM		Cc1[nH]nc(C(=O)Nc2ccc(OC3CCN(C)CC3)nc2)c1/C=C/c1cccnc1
3000 nM				Cn1cc(-c2ccc3cnc(NC(=O)c4ccc5cnccc5c4)cc3c2)cn1
3000 nM	132 nM			CC(C)Nc1cncc(-c2ccc3cnc(NC(=O)c4cccc(C5CCN(C)CC5)c4)cc3c2)n1
3000 nM	1400 nM			CN1CCC(n2cc(C(=O)Nc3ncc4ccc(-c5cncc6[nH]ccc56)cc4n3)cn2)CC1
1.9 nM	> 10000 nM	6 nM		O=C(Nc1cncc(-c2ccc3[nH]nc(-c4nc5c(-c6cccnc6)cncc5[nH]4)c3c2)c1)c1ccccc1
11.5 nM				CN1CCN(c2cc(C(=O)Nc3cc4cc(-c5cnn(C)c5N)ccc4cn3)ccn2)CC1
40.1 nM	13.3 nM	3 nM		CN1CCC(n2cc(C(=O)Nc3cc4cc(-c5cncc6[nH]ccc56)ccc4cn3)cn2)CC1
798 nM	710 nM			CN1CCN(c2cc(C(=O)Nc3cc4cc(-c5ccc(N)nc5)ccc4cn3)ccn2)CC1
12.2 nM				CN1CCN(c2cc(C(=O)Nc3cc4cc(-c5cnn(C6CC6)c5)ccc4cn3)ccn2)CC1
1630 nM				Cn1cc(-c2ccc3cnc(NC(=O)c4ccc5c(c4)CNCC5)cc3c2)cn1
0.8 nM	643 nM	8 nM		CCN(C)Cc1cncc(-c2cnc3[nH]nc(-c4nc5c(-c6cccc(F)c6)cncc5[nH]4)c3c2)c1
	1040 nM	3 nM	10 nM	CCNCc1cncc(-c2ccc3[nH]nc(-c4cc5cnccc5[nH]4)c3c2)c1
1920 nM	375 nM	6 nM		O=C(Nc1cc2cc(-c3cnn4c3CCNC4)ccc2cn1)c1ccc(OC(F)F)cc1
180 nM	30 nM	1 nM		Nc1ncc(NC(=O)c2n[nH]c3ccc(-c4cncc(CN5CCCCC5)c4)cc23)cn1
3000 nM	1850 nM	4 nM		O=C(Nc1ccc(OCCN2CCCC2)cc1)c1n[nH]cc1/C=C/c1cccnc1
154 nM	824 nM			CC(C)OC(=O)N1CCC(n2cc(C(=O)Nc3cc4cc(-c5cnn(C)c5)ncc4cn3)cn2)CC1
3000 nM	1430 nM	50 nM		Cc1n[nH]c2ccc(-c3cncc(N4CCC[C@H](N)C4)n3)cc12
3000 nM				CN1CCC2(CC1)CN(c1cc(C(=O)Nc3cc4cc(-c5cnn(C)c5CO)ccc4cn3)ccn1)C2
3000 nM				Cn1cncc1-c1ccc2cnc(NC(=O)c3ccnc(N4CCN(C5CC5)CC4)c3)cc2c1
3000 nM				CN1CCCN(c2cc(C(=O)Nc3cc4cc(-c5cnn(C)c5)ccc4cn3)ccn2)CC1
898 nM				CN1CCN(c2cc(C(=O)Nc3cc4c(Cl)c(-c5cnn(C)c5)ccc4cn3)ccn2)CC1
	> 10000 nM	30 nM	300 nM	CCNCc1cncc(-c2cnc3[nH]nc(-c4cc5c(-c6cc(F)cc(CNS(C)(=O)=O)c6)nccc5[nH]4)c3c2)c1

EC50 [1]	EC50 [2]	EC50 [3]	EC50 [4]	SMILES
8.7 nM	107 nM			Cc1ncc(C(=O)Nc2cc3nc(-c4cnc(C)n4C)ccc3cn2)s1
3000 nM	1820 nM			O=C(NCc1cc(F)cc(F)c1)c1n[nH]c2ccc(-c3cncc(CN4CCCCC4)c3)cc12
	3640 nM	16 nM	300 nM	CS(=O)(=O)NCc1cc(F)cc(-c2nccc3[nH]c(-c4n[nH]c5ncc(-c6cncc(NC(=O)C7CCC7)c6)cc45)cc23)c1
	18.8 nM	53 nM	10 nM	CCCC(=O)Nc1cncc(-c2cc3c(-c4nc5c(-c6cccc(F)c6)nccc5[nH]4)n[nH]c3cn2)c1
4.6 nM	115 nM			CC(C)n1cc(C(=O)Nc2cc3cc(-c4cncn4C(C)C)ccc3cn2)cn1
	32 nM	83 nM	300 nM	CN(C)Cc1cncc(-c2cnc3[nH]nc(-c4nc5c(-c6ccsc6)cccc5[nH]4)c3c2)c1
3000 nM				CN1Cc2ccc(C(=O)Nc3cc4cc(-c5cncn5C)ccc4cn3)cc2C1
897 nM	119 nM			O=C(Nc1cc2cc(-c3cncc(NCC4(F)CNC4)n3)ccc2cn1)C1CC1
417 nM	468 nM			CN1CCN(c2cc(C(=O)Nc3ncc4ccc(-c5cnn(C)c5)cc4n3)ccn2)CC1
0.4 nM				CN1CCN(c2cc(C(=O)Nc3cc4cc(-c5cnn(C)c5)c(F)cc4cn3)ccn2)CC1
3000 nM				CN1CCc2cc(C(=O)Nc3cc4cc(-c5cn(C)nn5)ccc4cn3)ccc2C1
3000 nM	26.8 nM			CN1CCC(n2cc(C(=O)Nc3cc4cc(-c5cnc6cc[nH]c6c5)ccc4cn3)cn2)CC1
3000 nM	357 nM			CN1CC=C(c2cc(C(=O)Nc3cc4cc(-c5cncc(NC(C)(C)C)n5)cnc4cn3)ccn2)CC1
71.5 nM	1890 nM			Cc1nnc(C(=O)Nc2cc3cc(-c4cncn4C)ccc3cn2)s1
3000 nM	102 nM			CN1CCN(c2cc(C(=O)Nc3cc4nc(-c5cnn(C)c5)ccc4cn3)ccn2)CC1
3000 nM	1640 nM			Cc1n[nH]c2ccc(-c3cncc(OCCN)c3)cc12
3000 nM				Cc1cc(C(=O)Nc2cc3cc(-c4cnn(C)c4)ccc3cn2)cc(N2CCN(C)CC2)n1
3000 nM				CN1CCC2(CC1)CN(c1cc(C(=O)Nc3cc4cc(-c5cnn(C)c5)ccc4cn3)ccn1)C2
697 nM				CN(C)C1CCN(c2cc(C(=O)Nc3cc4cc(-c5cnn(C)c5)ccc4cn3)ccn2)CC1
3000 nM	447 nM			Cn1cc(-c2ccc3cnc(NC(=O)c4ccc5nccnc5c4)cc3n2)cn1
10.5 nM				Cc1ncc(-c2ccc3cnc(NC(=O)c4ccc(OC(C)C)cc4)cc3c2)n1C
307 nM	1310 nM			O=C(Nc1ccc(CN2CCCC2)cc1)c1n[nH]c2ccc(-c3cncnc3)cc12
3000 nM	607 nM			CN1CCC2(CC1)CN(c1cc(C(=O)Nc3cc4cc(-c5cnn(C)c5CN5CCCCC5)cnc4cn3)ccn1)C2
88.1 nM	54.5 nM			CC(C)OC(=O)N1CCC(n2cc(C(=O)Nc3cc4cc(-c5cnn(C)c5)ccc4cn3)cn2)CC1

SMILES	EC50 [1]	EC50 [2]	EC50 [3]	EC50 [4]
CN1CCN(c2ccc(C(=O)Nc3cc4cc(-c5cnn6c5CN(CCF)CC6)ccc4cn3)cn2)CC1	3000 nM			
